Results from patent US7238718B2, “Method for treating myolytic disease and method for screening antimyolytic agent” (Osaka Bioscience Institute, priority 2003, dated 2007).

Assays:
[1] = system: myolysis induced by bupivacaine hydrochloride in gastrocnemius; assay: Nonoperative observation of necrotic lesion using X-ray CT with iopamidol; assay type: in vivo, mice; settings: one day after bupivacaine hydrochloride; 15 min after iopamidol i.v.; FIG. 3
Protocol: Degenerated region was observed by a nonoperative manner using X-ray CT for experimental animals. N,N′-Bis[2-hydroxy-1-(hydroxymethyl)ethyl]-5-[(2S)-2-hydroxypropanoylamino]-2,4,6-triiodoisophthalamide (iopamidol), an X-ray contrast agent for urinary blood vessels, was intravenously injected from tail vein of mice after one day from the treatment with bupivacaine hydrochloride and a laminogram by an X-ray CT after 15 minutes is shown. A region with specific CT values which is noted in the laminogram of gastrocnemius decreased by administration of HQL-79. In the region where retention of the contrast agent is recognized, bleeding and edema as a result of muscular destruction are noted (refer to FIG. 3).

[2] = system: myolysis induced by bupivacaine hydrochloride in gastrocnemius; assay: Quantification of myolysis region by Evans' Blue extraction and absorbance (630 nm); assay type: in vivo, C57BL/6 mice
Protocol: Quantification of the degenerated region by necrosis shown in Example 1 was carried out. Evans' Blue was extracted from the freeze-dried gastrocnemius by formamide. After the extraction, absorbance of Evans' Blue (630 nm) was measured calorimetrically.

myolysis in mdx mice = assay: Therapeutic effect in mdx mice (Duchenne's muscular dystrophy model), Evans' Blue retention; assay type: in vivo; settings: continuously administered for two weeks; compared with vehicle group; FIG. 5
Protocol: HQL-79 was continuously administered for two weeks to mdx mice which is a model animal for Duchenne's muscular dystrophy (Bogdanovich S, et al., Nature, Nov. 28, 2002, 420(6914):418–21) […] and the effect of the HPGDS inhibitor to myolysis was tested. After two weeks from the initiation of the administration, an Evans' Blue dye solution (1.0 w/v %) was intravenously injected from tail vein. After one hour therefrom, the mice were killed by excessive anaesthetization and perfused with physiological saline solution, the gastrocnemius was excised and quickly frozen. The retention of Evans' Blue in the muscle was observed under a fluorescent microscope. Necrotic lesion was enhanced by means of fluorescence. In the mice to which HQL-79 was administered, retention of the dye (grayish white region) which is an index for myolysis decreased as compared with the group to which a vehicle was administered (refer to FIG. 5).

[3] = system: myolysis induced by bupivacaine hydrochloride in gastrocnemius; assay: Myolysis model induced by bupivacaine hydrochloride, Evans' Blue fluorescence microscopy of gastrocnemius; assay type: in vivo, C57BL/6 mice; settings: 10 mg/kg orally; 24 h after bupivacaine hydrochloride 0.5 w/v %, 0.1 ml; FIG. 1
Protocol: Effect of an H-PGDS inhibitor to myolysis was tested using a myolysis model induced by bupivacaine hydrochloride which is an experimental model for muscular dystrophy (Nonaka I, et al., Acta Neuropathol., 60:167–174, 1983). Bupivacaine hydrochloride (0.5 w/v %, 0.1 ml) was injected into gastrocnemius of C57BL/6 mice (K. K. Oriental Bio Service) (eight weeks old; male) to induce myolysis and, after 24 hours, Evans' Blue dye solution (1.0 w/v %) was intravenously injected from tail vein. After 30 minutes, they were killed by excessive anesthetization and perfused with physiological saline solution, gastrocnemius was excised and quickly frozen. The cryosection was prepared and then accumulated Evans' Blue was observed under a fluorescent microscope. Necrotic legion was enhanced by means of fluorescence.

Row | Structure (SMILES) | region with specific CT values in laminogram of gastrocnemius [1] | incorporation of Evans' Blue into gastrocnemius (absorbance 630 nm) ([2]; HQL-79 group of Example 1, formamide extraction, FIG. 2) | retention of Evans' Blue dye in muscle (index for myolysis) (myolysis in mdx mice) | degenerated region by necrosis (Evans' Blue fluorescence) [3] | amount of Evans' Blue impregnated into the tissue (absorbance 630 nm) ([2]; 30 mg/kg orally, 1 h before and 18 h after bupivacaine hydrochloride 1 w/v %, 0.05 mL, read at 24 h, FIG. 6)
1 | c1ccc(C(OC2CCN(CCCc3nnn[nH]3)CC2)c2ccccc2)cc1 [HQL-79, 4-benzhydryloxy-1-{3-(1H-tetrazol-5-yl)-propyl}piperidine] | decreased | significantly decreased | decreased | degenerated region by necrosis became small | 
2 | O=C(O)CCn1c2c(c3ccccc31)C[C@H](NS(=O)(=O)c1ccc(F)cc1)CC2 [ramatroban, (+)-(3R)-3-(4-fluorobenzenesulfonamide)-1,2,3,4-tetrahydrocarbazole-9-propionic acid] |  |  |  |  | lowered
